{"source": "patent US20110046235A1", "about": "“PRODUCTS COMPRISING, AND USES OF, DECARBOXYLATED PHENOLIC ACIDS DERIVED FROM CHLOROGENIC ACIDS OF COFFEE” (NESTEC S.A., priority 2008, published 2011)", "key": {"Nrf2": {"system": "Nrf2", "experiment": "Antioxidant Responsive Element (ARE) luciferase assay", "format": "cell-based, human", "details": "24 h, AREc 32 (MCF7) cells", "description": "The pGL-8×ARE which contains eight copies of the ARE present in rat glutathione-S-transferase A2 (GSTA2) along with the pcDNA3.1 plasmid containing the neomycin selectable marker was stably transfected into human MCF7 cells (Wang et al., Cancer Res. 66, 10983-10994, 2006). ARE (antioxidant-responsive element) is the binding site of the transcription factor Nrf2 which regulates the genes involved in detoxification and endogenous defence against oxidative stress. The plasmid pGL-8×ARE contains a luciferase gene downstream of the eight Nrf2 binding sites that allows monitoring Nrf2 activity. The AREc 32 cells were seeded in 96-well microtiter plates in DMEM growth medium. After treatment with 4-vinylcatechol for 24 h firefly luciferase activity was determined."}, "[1]": {"system": "PGE2 production in HT-29 cells", "experiment": "Prostaglandin E2 formation assay", "format": "cell-based, human", "details": "15 h then 6 h with TNF-α 10 ng/ml", "description": "Human colon HT-29 cells were treated with 4-vinylcatechol for 15 h followed by a co-incubation of 6 h together with a pro-inflammatory agent TNF-α (10 ng/ml). Analysis of the PGE2 production in HT-29 cells was determined using a competitive enzyme immunoassay (EIA) (Cavin et al., BBRC 327, 742-49, 2005)."}}}
{"smiles": "C=Cc1ccc(O)c(O)c1", "note": "[4-vinylcatechol]", "values": [{"measurement": "firefly luciferase activity (induction of Nrf2 activity)", "setting": "Nrf2; 4-vinylcatechol 200 μg/ml", "result": 16, "unit": "AU"}, {"measurement": "firefly luciferase activity (induction of Nrf2 activity)", "setting": "Nrf2; 4-vinylcatechol 400 μg/ml", "result": 41, "unit": "AU"}, {"measurement": "firefly luciferase activity (induction of Nrf2 activity)", "setting": "Nrf2; 4-vinylcatechol 600 μg/ml", "result": 22, "unit": "AU"}, {"measurement": "PGE2 formation", "setting": "[1]; 4-vinylcatechol 3.13 μg/ml", "result": "58 % of control"}, {"measurement": "PGE2 formation", "setting": "[1]; 4-vinylcatechol 6.25 μg/ml", "result": "46 % of control"}, {"measurement": "PGE2 formation", "setting": "[1]; 4-vinylcatechol 9.38 μg/ml", "result": "21 % of control"}, {"measurement": "PGE2 formation", "setting": "[1]; 4-vinylcatechol 15.63 μg/ml", "result": "12 % of control"}, {"measurement": "PGE2 formation", "setting": "[1]; 4-vinylcatechol 31.25 μg/ml", "result": "5 % of control"}, {"measurement": "PGE2 formation", "setting": "[1]; 4-vinylcatechol 62.5 μg/ml", "result": "2 % of control"}]}
